Source: patent publication US10449186B2, “Phenylethynyl-substituted benzenes and heterocycles for the treatment of cancer” (UNIVERSITY OF KENTUCKY RESEARCH FOUNDATION, priority 2017, dated 2019)
Structures can show the parent of a compound that is named as a salt. Where two headings read alike, the source gives them in different places.

What was measured:
[1] = system: LS174T colon cancer cells; experiment: LS174T cell proliferation assay; format: cell-based; set-up: effects on LS174T colon cancer cell proliferation (Table 3): unit not given here; details: for inhibition at 1 µM / inhibition at 10 µM / inhibition at 0.1 µM: Homo sapiens, LS174T
Description: Cell proliferation assay. LS174T cells were grown in RPMI medium (Mediatech) supplemented with 5% fetal bovine serum and 1% penicillin/streptomycin. For cell proliferation assays, 3×10^4 cells/well growing in 12-well plates were treated with DMSO or inhibitors. The cell numbers and viability were analyzed by Vi-Cell Cell Viability Analyzer after 4 days. The IC50 values were calculated with GraphPad Prim 5.

[2] = read-out: inhibition of cell proliferation (%) of colon cancer LS174T cells
[3] = Table 2, 1 μM, read-out: inhibition of cell proliferation (%) of colon cancer LS174T cells
[4] = Table 2, 10 μM, read-out: inhibition of cell proliferation (%) of colon cancer LS174T cells
[5] = Table 2, 100 nM, read-out: inhibition of cell proliferation (%) of colon cancer LS174T cells
[6] = Table 1, 1 μM, read-out: inhibition of proliferation (%) of colon cancer LS174T cells
[7] = Table 1, 10 μM, read-out: inhibition of proliferation (%) of colon cancer LS174T cells
[8] = 1 μM, read-out: inhibition of LS174T colon cancer cell proliferation
[9] = read-out: inhibition of LS174T colon cancer cell proliferation

Row | Compound | inhibition at 1 µM [1, 2] [%] | inhibition at 10 µM [1, 2] [%] | melting point [°C] | inhibition at 1 µM [1, 3] [%] | inhibition at 10 µM [1, 4] [%] | also measured
1 | Fc1cccc(F)c1C#Cc1ccnc2ccccc12 [Compound 5o, 4-((2,6-Difluorophenyl)ethynyl)quinoline] | 15.4 ± 9.1 | 59 ± 7.5 | 101 to 102 | – | – | –
2 | Fc1cccc(F)c1C#Cc1ccc2nccc(Cl)c2c1 [Compound 5aa, 4-Chloro-6-((2,6-difluorophenyl)ethynyl)quinoline] | – | – | 120 to 122 | 43.8 ± 10.8 | 89.7 ± 4.3 | –
3 | CN(C)c1cnc(C#Cc2c(F)cccc2F)cn1 [Compound 5d, 5-((2,6-Difluorophenyl)ethynyl)-N,N-dimethylpyrazin-2-amine] | – | – | 137 to 138 | 22.9 ± 9.8 | 91.6 ± 3 | –
4 | Fc1cccc(F)c1C#Cc1cnc2ccccc2c1Cl [Compound 5q, 4-Chloro-3-((2,6-difluorophenyl)ethynyl)quinoline] | – | – | 140 to 142 | 51.5 ± 20.4 | 80.4 ± 13.7 | inhibition at 0.1 µM [1, 5]: 0%
5 | Fc1cccc(F)c1C#Cc1cccc2cccnc12 [Compound 5y, 8-((2,6-Difluorophenyl)ethynyl)quinoline] | 47.6 ± 3.5 | 92.7 ± 2.9 | 108 to 110 | – | – | –
6 | CNc1ccc(C#Cc2c(F)cncc2F)cc1 [Compound 7c, 4-((3,5-Difluoropyridin-4-yl)ethynyl)-N-methylaniline] | – | – | 149 to 151 | – | – | effects on LS174T colon cancer cell proliferation (Table 3) ([1]; 30 nM): 20.3; effects on LS174T colon cancer cell proliferation (Table 3) ([1]; 100 nM): 49.5; effects on LS174T colon cancer cell proliferation (Table 3) ([1]; 300 nM): 62.6
7 | Fc1cccc(F)c1C#Cc1ccc(-n2cccc2)cc1 [Compound 4d, 1-(4-((2,6-Difluorophenyl)ethynyl)phenyl)-1H-pyrrole] | – | – | 122 to 124 | – | – | activity in a cell proliferation assay ([1]; 100 nM): considerably diminished activity; activity in a cell proliferation assay ([1]; 1 μM): comparable to 4-((2,6-difluorophenyl)ethynyl)-N,N-dimethylaniline (2); inhibition at 0.1 µM ([1]; Table 1, 100 nM, read-out: inhibition of proliferation (%) of colon cancer LS174T cells): 11%; inhibition at 1 µM [1, 6]: 77.5%; inhibition at 10 µM [1, 7]: 96.7%
8 | Nc1ccnc2ccc(C#Cc3c(F)cccc3F)cc12 [Compound 5cc, 6-((2,6-Difluorophenyl)ethynyl)quinolin-4-amine] | – | – | 220 to 222 | 66.2 ± 3.1 | 93.9 ± 0.4 | inhibition at 0.1 µM [1, 5]: 0%
9 | Fc1cccc(F)c1C#Cc1ccc2[nH]ccc2c1 [Compound 5e, 5-((2,6-Difluorophenyl)ethynyl)-1H-indole] | – | – | 131 to 133 | 52.9 ± 5.9 | 91.5 ± 3.5 | –
10 | Fc1cccc(F)c1C#Cc1ccc(N2CCOCC2)cc1 [Compound 4b, 4-(4-((2,6-Difluorophenyl)ethynyl)phenyl)morpholine] | – | – | 144 to 145 | – | – | inhibition at 1 µM [1, 6]: 13%; inhibition at 10 µM [1, 7]: 32.1%
11 | Fc1cccc(F)c1C#Cc1cncc2ccccc12 [Compound 5hh, 4-((2,6-Difluorophenyl)ethynyl)isoquinoline] | – | – | 102 to 104 | 16.5 ± 2.1 | 87.9 ± 1 | –
12 | Fc1cccc(F)c1C#Cc1cc2ccccc2nc1Cl [Compound 5p, 2-Chloro-3-((2,6-difluorophenyl)ethynyl)quinoline] | 28.4 ± 10.5 | 85.1 ± 6.2 | 137 to 138 | – | – | –
13 | Nc1ccc(C#Cc2c(F)cncc2F)cc1 [Compound 7b, 4-((3,5-Difluoropyridin-4-yl)ethynyl)aniline] | – | – | 156 to 158 | – | – | effects on LS174T colon cancer cell proliferation (Table 3) ([1]; 30 nM): 11.4; effects on LS174T colon cancer cell proliferation (Table 3) ([1]; 100 nM): 30.5; effects on LS174T colon cancer cell proliferation (Table 3) ([1]; 300 nM): 36.2
14 | CN(C)c1ccc2cc(C#Cc3c(F)cccc3F)ccc2n1 [Compound 5ee, 6-((2,6-Difluorophenyl)ethynyl)-N,N-dimethylquinolin-2-amine] | 2 ± 11.9 | 38.7 ± 4.3 | 142 to 144 | – | – | –
15 | Fc1cccc(F)c1C#Cc1ccc2ccccc2n1 [Compound 5m, 2-((2,6-Difluorophenyl)ethynyl)quinoline] | 67.3 ± 13.6 | 93.8 ± 1.7 | 127 to 129 | – | – | inhibition at 0.1 µM [1, 2]: 6.1 ± 27%
16 | O=C1CCCCN1c1ccc(C#Cc2c(F)cccc2F)cc1 [Compound 4a, 1-(4-((2,6-Difluorophenyl)ethynyl)phenyl)piperidin-2-one] | – | – | 148 to 150 | – | – | inhibition at 1 µM [1, 6]: 6.4%; inhibition at 10 µM [1, 7]: 68.1%
17 | Cn1ncc2ccc(C#Cc3c(F)cccc3F)cc21 [Compound 5k, 6-((2,6-Difluorophenyl)ethynyl)-1-methyl-1H-indazole] | – | – | 117 to 119 | 85.9 ± 5.4 | 98.1 ± 0.4 | inhibition at 1 µM [1, 8]: > 75%; inhibition at 0.1 µM [1, 5]: 0%

Row | Compound | inhibition at 1 µM [1, 2] [%] | inhibition at 10 µM [1, 2] [%] | melting point [°C] | inhibition at 1 µM [1, 3] [%] | inhibition at 10 µM [1, 4] [%] | also measured
18 | Fc1cccc(F)c1C#Cc1ccc2cn[nH]c2c1 [Compound 5i, 6-((2,6-Difluorophenyl)ethynyl)-1H-indazole] | 81.5 ± 2.9 | 97 ± 1.1 | 192 to 194 | – | – | inhibition at 1 µM [1, 9]: > 75%
19 | Nc1ncc(C#Cc2c(F)cccc2F)c2ccccc12 [Compound 5mm, 4-((2,6-Difluorophenyl)ethynyl)isoquinolin-1-amine] | 86.2 ± 1.6 | 93.1 ± 1.6 | 200 to 201 | – | – | inhibition at 0.1 µM [1, 2]: 35.5 ± 1.7%
20 | Fc1cncc(F)c1C#Cc1ccccc1 [Compound 7a, 3,5-Difluoro-4-(phenylethynyl)pyridine] | – | – | 52 to 54 | – | – | effects on LS174T colon cancer cell proliferation (Table 3) ([1]; 30 nM): 5.3; effects on LS174T colon cancer cell proliferation (Table 3) ([1]; 100 nM): 24.7; effects on LS174T colon cancer cell proliferation (Table 3) ([1]; 300 nM): 12.2
21 | Cn1ccc2cc(C#Cc3c(F)cccc3F)ccc21 [Compound 5f, 5-((2,6-Difluorophenyl)ethynyl)-1-methyl-1H-indole] | – | – | – | 77.7 ± 13.6 | 95.2 ± 1 | inhibition at 1 µM [1, 8]: > 75%; inhibition at 0.1 µM [1, 5]: 3 ± 5.6%
22 | Fc1cccc(F)c1C#Cc1cccc2cnccc12 [Compound 5ii, 5-((2,6-Difluorophenyl)ethynyl)isoquinoline] | – | – | 115 to 117 | 64.2 ± 6.1 | 93.6 ± 0.5 | –
23 | Fc1cccc(F)c1C#Cc1ccc2cccnc2c1 [Compound 5x, 7-((2,6-Difluorophenyl)ethynyl)quinoline] | 90.7 ± 0.6 | 99.4 ± 0.3 | 123 to 125 | – | – | inhibition at 1 µM [1, 9]: > 75%; inhibition at 0.1 µM [1, 2]: 2.9 ± 14%
24 | CN1CCN(c2ncc(C#Cc3c(F)cccc3F)c3ccccc23)CC1 (as salt: hydrochloride) [Compound 5pp, 4-((2,6-Difluorophenyl)ethynyl)-1-(4-methylpiperazin-1-yl)isoquinoline] | – | – | 70 to 72 | – | – | –
25 | Fc1cccc(F)c1C#Cc1ccc(-n2cccc2)nc1 [Compound 5c, 5-((2,6-Difluorophenyl)ethynyl)-2-(1H-pyrrol-1-yl)pyridine] | 80.5 ± 6.6 | 95.3 ± 0.8 | 121 to 123 | – | – | inhibition at 1 µM [1, 9]: > 75%; inhibition at 0.1 µM [1, 2]: 0%
26 | Fc1cccc(F)c1C#Cc1ccc2cncnc2c1 [Compound 5rr, 7-((2,6-Difluorophenyl)ethynyl)quinazoline] | – | – | 166 to 168 | 33.8 ± 4.8 | 96.3 ± 0.8 | –
27 | Fc1cccc(F)c1C#Cc1cnc(Cl)c2ccccc12 [Compound 5kk, 1-Chloro-4-((2,6-difluorophenyl)ethynyl)isoquinoline] | 48.1 ± 18.1 | 94 ± 0.5 | 145 to 146 | – | – | inhibition at 0.1 µM [1, 2]: 0.8 ± 36.1%
28 | Fc1cccc(F)c1C#Cc1ccc2[nH]ncc2c1 [Compound 5h, 5-((2,6-Difluorophenyl)ethynyl)-1H-indazole] | 17.6 ± 7.9 | 82.9 ± 9.8 | 193 to 195 | – | – | –
29 | Fc1cccc(F)c1C#Cc1ccc2c(Cl)ccnc2c1 [Compound 5bb, 4-Chloro-7-((2,6-difluorophenyl)ethynyl)quinoline] | – | – | 148 to 150 | 23.1 ± 8.3 | 70.8 ± 4.8 | –
30 | CN(C)c1ccnc2ccc(C#Cc3c(F)cccc3F)cc12 [Compound 5ff, 6-((2,6-Difluorophenyl)ethynyl)-N,N-dimethylquinolin-4-amine] | 81.3 ± 1.4 | 95.5 ± 2 | 118 to 120 | – | – | inhibition at 1 µM [1, 9]: > 75%; inhibition at 0.1 µM [1, 2]: 0%
31 | Nc1ccc2ncc(C#Cc3c(F)cccc3F)cc2c1 [Compound 5r, 3-((2,6-Ditfluorophenyl)ethynyl)quinolin-6-amine] | – | – | – | – | – | inhibition of cell proliferation (%) of colon cancer LS174T cells ([1]; Table 2, 10 μM): 9.2 ± 15.7%
32 | Fc1cccc(F)c1C#Cc1cnc2[nH]ccc2c1 [Compound 5l, 5-((2,6-Difluorephenyl)ethynyl)-1H-pyrrolo[2,3-b]pyridine] | – | – | – | – | – | inhibition of cell proliferation (%) of colon cancer LS174T cells ([1]; Table 2, 1 μM): 17.3 ± 12.0%; inhibition of cell proliferation (%) of colon cancer LS174T cells ([1]; Table 2, 10 μM): 77.9 ± 8.9%
33 | CN(C)c1ccc(C#Cc2c(F)cncc2F)cc1 [Compound 7d, 4-((3,5-Difluoropyridin-4-yl)ethynyl)-N,N-dimethylaniline] | – | – | – | – | – | effects on LS174T colon cancer cell proliferation (Table 3) ([1]; 30 nM): 16.7; effects on LS174T colon cancer cell proliferation (Table 3) ([1]; 100 nM): 20.4; effects on LS174T colon cancer cell proliferation (Table 3) ([1]; 300 nM): 60.6
